In patent US12390487B2, “Antiseptic skin prep composition” (Solventum Intellectual Properties Company, priority 2019, dated 2025):

Experiment: Solubility of dye in alcohol systems
Format: physicochemical
From the text: It was observed that, Ponceau 4R Dye precipitated on the second day. The others (Brilliant Blue, D&C Green, Carmoisine) were stable over 30 days at room temperature with no precipitation observed. PVPK 120 postpones the precipitation of anionic dyes with CHG to various degrees. It was observed that the azo dye structure with 3 sulphonate groups precipitated out of solution quicker.

Solubility in alcohol systems: good solubility
Structure (SMILES): O=C1OC2(c3ccccc31)c1cc(I)c(O)c(I)c1Oc1c2cc(I)c(O)c1I [Erythrosine]
